Reference: patent publication US20070207119A1, “Histone deacetylase inhibitor enhancement of trail-induced apoptosis” (University of South Florida, priority 2002, published 2007)

Experiments:
Jurkat cells = assay: Apoptosis of Jurkat cells, annexin V staining and flow cytometry; format: cell-based, human
Protocol: (§1) FIG. 2 LAQ824 induces accumulation in the G1 phase of the cell cycle and apoptosis. SKW 6.4 (A) and Jurkat (B) cells were treated with the indicated concentration of LAQ824 for 24 hours. Following this, the cell cycle status and the percentage of apoptotic cells were determined by flow cytometry. Values represent mean±SE of 3 experiments. FIG. 8 Treatment LAQ824 enhances Apo-2L/TRAIL induced DISC assembly, DISC activity and apoptosis. A. SKW 6.4 and B. Jurkat cells were treated with LAQ824 and/or Apo-2L/TRAIL at the indicated doses for 24 hours. Following this, the percentage of apoptotic cells was determined by annexin-V staining followed by flow cytometry. Values represent mean±SE of 3 experiments. C. Following treatment of Jurkat cells with LAQ824 (20 nM) and/or Apo-2L/TRAIL (10 ng/ml) for 24 hours, either the total cell lysates were utilized for immunoblot analyses of caspase-8, BID, caspase-3 and PARP, or the cytosolic (S100) fractions of cells were either used for immunoblot analysis of cytochrome (cyt) c, Omi or Smac (D), β-Actin expression was used as the loading control. E. SKW 6.4 cells were treated with 100 nM LAQ824 for 24 hours or 100 ng/ml Apo-2L/TRAIL for 2 hours, or LAQ824 followed by Apo-2L/TRAIL. […]

DR5 mRNA = assay: Multi-probe RNase protection assay, DR5 mRNA; format: cell-based, human; conditions: SKW 6.4 and Jurkat cells, 100 nM LAQ824, 8 or 16 hours; densitometry, GAPDH mRNA as loading control
Protocol: (§2) FIG. 6 Treatment with LAQ824 increases the mRNA expression of DR4 and DR5, and increases the association of the DR5 gene with the acetylated histone H3 and H4 in chromatin. A. After exposure of SKW 6.4 and Jurkat cells to 100 nM LAQ824 for the indicated time intervals (hours), mRNA expression levels of the indicated genes were determined using a Riboquant Multi-Probe RNase Protection Assay. B. Soluble chromatin was immunoprecipitated with anti-acetylated histone H3 and H4 antibodies. PCR primers for the DR5 promoter were used to amplify the DNA isolated from the immunoprecipitates. PCR products were scanned and quantified. […] The ratio between input DNA and precipitated DNA was calculated for each treatment.
(§3) A RiboQuant Multi-Probe RNase Protection Assay System was used according to the manufacturer's instructions (BD/PharMingen, San Diego, Calif.), and as previously described. […] The remaining probes were resolved on 5% denaturing polyacrylamide gel and analyzed by autoradiography.
(§4) Next, the effect of LAQ824 on the mRNA levels of c-FLIPL, DR5, DR4 and Apo-2L/TRAI, utilizing a multi-probe RNAse protection assay and estimated by densitometry with GAPDH mRNA as the loading control was determined. […] In contrast to the increase in the DR5 and DR4 mRNA levels, exposure to LAQ824 for eight hours inhibited the mRNA level of c-FLIPL by 75%, as determined by an RT-PCR assay (FIG. 7A). […]

FAS mRNA = assay: Multi-probe RNase protection assay, FAS mRNA; format: cell-based, human; conditions: SKW 6.4 and Jurkat cells, 100 nM LAQ824, 8 or 16 hours; densitometry, GAPDH mRNA as loading control
Protocol: as §2, §3, §4

DR4 mRNA = assay: Multi-probe RNase protection assay, DR4 mRNA; format: cell-based, human; conditions: only in SKW 6.4 cells, 100 nM LAQ824, 8 or 16 hours
Protocol: as §2, §3, §4

DR5 = assay: Cell-membrane expression of DR5 in primary AML cells, anti-DR5 staining and flow cytometry; format: cell-based, human; conditions: primary AML sample, baseline 17.5%
Protocol: FIG. 11 LAQ824 induces histone acetylation, increases DR4 and DR5 levels, as well as down regulates FLIPS and FLIPL in primary AML cells. A. AML cells were treated with LAQ824 at the indicated concentrations for 24 hours. Following this histone protein were isolated, and the Histone H3 acetylation was detected by Western blot analysis using the anti-acetylated Histone H3 antibody. Total cell lysates of the untreated and LAQ824 treated cells were also used for immunoblot analyses of DR5, DR4, FLIPL and FLIPS. β-actin was used as the loading control. B. Bone marrow mononuclear cells from a patient with AML were exposed to 100 or 250 nM of LAQ824 for 24 hours. Following this, cell-membrane expression of DR5 was determined by staining with anti-DR5 antibody and evaluated by flow cytometry. Flow cytometric histograms in panels a to d are from cells treated with: a. Isotype control, b. untreated control cells, c. 100 nM LAQ824 and d. 250 nM LAQ824.
The sensitivity of fresh AML cells procured from patients with relapsed AML to Apo-2L/TRAIL and/or LAQ824-induced apoptosis was next to be determined. […] In every sample evaluated, co-treatment with LAQ824 and Apo-2L/TRAIL induced more apoptosis than treatment with either agent alone. […] Based on the availability adequate sample, we also determined the effect of LAQ824 on the determinants of Apo-2L/TRAIL-induced DISC.

SKW 6.4 cells = assay: Apoptosis of SKW 6.4 cells, annexin V staining and flow cytometry; format: cell-based, human; conditions: 10 to 200 nM LAQ824, 24 hours, less than in Jurkat
Protocol: as §1

[1] = system: HDAC activity in the HeLa cell nuclear extracts; conditions: LAQ824 5 to 250 nM, previously reported; cited from earlier work

With `O=C(/C=C/c1ccc(CN(CCO)CCc2c[nH]c3ccccc23)cc1)NO` [LAQ824] the “apoptosis, % of Jurkat cells” value (Jurkat cells; 100 or 200 nM LAQ824, 24 hours, data not shown) was “more than 90%”, the “induction of apoptosis (annexin V positive)” value (Jurkat cells; Jurkat cells, 10 to 200 nM LAQ824, 24 hours, more than in SKW 6.4) was “induced apoptosis in a dose dependent manner” and the “increase of mRNA expression of DR5” value (DR5 mRNA) was 2.4 fold. The “increase of mRNA expression of FAS” value (FAS mRNA) was 1.5 fold, the “increase of DR4 mRNA levels” value (DR4 mRNA) was 2.2 fold and the “DR5 expression on the cell membrane, % of cells” value (DR5; 100 nM LAQ824, 24 hours) was 33.2%. The “DR5 expression on the cell membrane, % of cells” value (DR5; 250 nM LAQ824, 24 hours) was 62.4%, the “induction of apoptosis (annexin V positive)” value (SKW 6.4 cells) was “induced apoptosis in a dose dependent manner” and the “in vitro HDAC activity” value [1] was “inhibits the in vitro HDAC activity in a dose dependent manner”.
